Experimental data published in ChEMBL document CHEMBL1909046, “DrugMatrix in vitro pharmacology data”.

Assays:
[1] = target: T1, Alpha-1A adrenergic receptor (Rattus norvegicus, UniProt P43140); experiment: DRUGMATRIX: Alpha-1A adrenergic receptor radioligand binding (ligand: prazosin); assay type: cell membranes, Wistar, Submaxillary gland, Membrane; conditions: Not Active = under 50% inhibition at 10 µM
T1 sequence (P43140 whole entry): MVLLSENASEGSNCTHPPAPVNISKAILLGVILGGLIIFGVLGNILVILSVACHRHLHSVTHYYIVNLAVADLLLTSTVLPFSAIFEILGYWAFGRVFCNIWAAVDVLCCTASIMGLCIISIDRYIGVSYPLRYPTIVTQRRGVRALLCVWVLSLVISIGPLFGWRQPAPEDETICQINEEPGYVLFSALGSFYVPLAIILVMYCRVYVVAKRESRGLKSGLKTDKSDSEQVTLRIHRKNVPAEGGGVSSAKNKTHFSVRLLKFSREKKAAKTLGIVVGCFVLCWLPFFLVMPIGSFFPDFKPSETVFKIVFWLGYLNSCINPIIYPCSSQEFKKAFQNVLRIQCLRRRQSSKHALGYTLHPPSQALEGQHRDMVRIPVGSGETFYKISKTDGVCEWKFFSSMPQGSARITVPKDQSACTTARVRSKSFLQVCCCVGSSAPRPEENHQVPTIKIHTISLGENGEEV

[2] = target: T2, Endothelin-1 receptor (Homo sapiens, UniProt P25101); assay type: cell membranes, Membrane; conditions: cho-k1; also: in other assays of this panel Not Active means under 50% inhibition at 10 µM
T2 sequence (P25101 whole entry): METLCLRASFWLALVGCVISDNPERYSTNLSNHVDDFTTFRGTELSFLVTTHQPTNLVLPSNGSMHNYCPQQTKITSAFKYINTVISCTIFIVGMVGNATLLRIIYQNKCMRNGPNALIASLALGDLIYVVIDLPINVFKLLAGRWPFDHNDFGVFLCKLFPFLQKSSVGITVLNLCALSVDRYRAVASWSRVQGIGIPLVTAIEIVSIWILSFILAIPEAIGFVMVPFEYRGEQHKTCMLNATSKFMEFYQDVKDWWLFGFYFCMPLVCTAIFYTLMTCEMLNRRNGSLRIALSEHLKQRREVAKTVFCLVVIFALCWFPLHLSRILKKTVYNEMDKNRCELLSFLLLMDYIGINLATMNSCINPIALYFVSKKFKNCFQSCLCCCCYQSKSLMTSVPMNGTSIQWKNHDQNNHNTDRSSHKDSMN

[3] = target: T3, Adenosine receptor A1 (Homo sapiens, UniProt P30542); assay type: cell membranes, CHO, Membrane; conditions: cho;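 also: radioligand binding assay at the adenosine A1 receptor, with DPCPX serving as the labelled ligand; in other assays of this panel Not Active means under 50% inhibition at 10 µM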
T3 sequence (P30542 whole entry): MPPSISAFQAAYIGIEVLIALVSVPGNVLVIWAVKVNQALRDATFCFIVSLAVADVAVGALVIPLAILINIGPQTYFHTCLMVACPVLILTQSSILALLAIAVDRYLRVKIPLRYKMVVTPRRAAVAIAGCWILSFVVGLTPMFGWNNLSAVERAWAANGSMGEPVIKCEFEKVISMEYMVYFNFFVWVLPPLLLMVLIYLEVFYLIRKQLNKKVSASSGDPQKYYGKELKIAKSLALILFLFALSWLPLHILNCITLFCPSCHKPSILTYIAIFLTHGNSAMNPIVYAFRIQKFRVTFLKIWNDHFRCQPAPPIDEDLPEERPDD

[4] = target: T4, Vasoactive intestinal polypeptide receptor 1 (Homo sapiens, UniProt P32241); assay type: cell membranes, Membrane; conditions: ht-29; also: in other assays of this panel Not Active means under 50% inhibition at 10 µM
T4 sequence (P32241 whole entry): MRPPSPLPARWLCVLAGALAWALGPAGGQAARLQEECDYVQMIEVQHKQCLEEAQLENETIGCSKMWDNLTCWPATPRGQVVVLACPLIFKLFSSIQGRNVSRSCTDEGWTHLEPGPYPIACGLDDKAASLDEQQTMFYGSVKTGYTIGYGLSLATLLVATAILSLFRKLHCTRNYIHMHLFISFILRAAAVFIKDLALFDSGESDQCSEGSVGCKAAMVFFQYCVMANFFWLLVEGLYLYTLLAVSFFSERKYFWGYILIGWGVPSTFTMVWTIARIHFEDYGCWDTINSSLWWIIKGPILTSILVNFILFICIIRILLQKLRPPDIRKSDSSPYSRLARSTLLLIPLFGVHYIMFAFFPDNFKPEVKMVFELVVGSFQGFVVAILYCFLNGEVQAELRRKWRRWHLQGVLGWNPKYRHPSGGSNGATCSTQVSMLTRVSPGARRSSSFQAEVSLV

[5] = target: T5, Cathepsin G (Homo sapiens, UniProt P08311); assay type: tissue-based; conditions: neutrophil;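 also: inhibition of Cathepsin G enzyme activity, tested on an AMC-conjugated peptide substrate; in other assays of this panel Not Active means under 50% inhibition at 10 µM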
T5 sequence (P08311 whole entry): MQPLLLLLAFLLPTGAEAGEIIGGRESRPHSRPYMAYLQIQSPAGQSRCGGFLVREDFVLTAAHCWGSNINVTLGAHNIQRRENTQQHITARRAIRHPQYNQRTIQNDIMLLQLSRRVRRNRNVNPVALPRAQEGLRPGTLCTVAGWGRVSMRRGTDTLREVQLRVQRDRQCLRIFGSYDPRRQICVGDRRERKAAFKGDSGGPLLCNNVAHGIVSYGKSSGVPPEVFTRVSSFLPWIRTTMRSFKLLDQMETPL

[6] = target: 5-hydroxytryptamine receptor 4 (Cavia porcellus, UniProt O70528); assay type: cell membranes, Dunkin-Hartley, Striatum, Membrane; also: in other assays of this panel Not Active means under 50% inhibition at 10 µM
[7] = target: T6, C-X-C chemokine receptor type 2 (Homo sapiens, UniProt P25025); assay type: cell membranes, Membrane; conditions: cho-k1; also: in other assays of this panel Not Active means under 50% inhibition at 10 µM
T6 sequence (P25025 whole entry): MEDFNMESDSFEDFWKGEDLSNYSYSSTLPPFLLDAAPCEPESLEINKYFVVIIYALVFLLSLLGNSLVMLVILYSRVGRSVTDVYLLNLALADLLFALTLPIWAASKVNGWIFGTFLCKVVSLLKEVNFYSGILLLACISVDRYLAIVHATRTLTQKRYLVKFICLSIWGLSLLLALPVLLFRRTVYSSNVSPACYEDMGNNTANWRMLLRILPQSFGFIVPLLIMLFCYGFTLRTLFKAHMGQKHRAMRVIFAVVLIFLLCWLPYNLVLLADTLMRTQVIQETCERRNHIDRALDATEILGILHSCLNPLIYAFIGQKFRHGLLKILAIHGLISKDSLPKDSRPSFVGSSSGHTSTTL

[8] = target: 5-hydroxytryptamine receptor 2B (Homo sapiens, UniProt P41595); assay type: cell membranes, CHO-K1, Membrane; also: in other assays of this panel Not Active means under 50% inhibition at 10 µM
[9] = target: C-C chemokine receptor type 2 (Homo sapiens, UniProt P41597); assay type: cell membranes, CHO-K1, Membrane; conditions: cho-k1; also: in other assays of this panel Not Active means under 50% inhibition at 10 µM
Sequence of C-C chemokine receptor type 2 (P41597 whole entry): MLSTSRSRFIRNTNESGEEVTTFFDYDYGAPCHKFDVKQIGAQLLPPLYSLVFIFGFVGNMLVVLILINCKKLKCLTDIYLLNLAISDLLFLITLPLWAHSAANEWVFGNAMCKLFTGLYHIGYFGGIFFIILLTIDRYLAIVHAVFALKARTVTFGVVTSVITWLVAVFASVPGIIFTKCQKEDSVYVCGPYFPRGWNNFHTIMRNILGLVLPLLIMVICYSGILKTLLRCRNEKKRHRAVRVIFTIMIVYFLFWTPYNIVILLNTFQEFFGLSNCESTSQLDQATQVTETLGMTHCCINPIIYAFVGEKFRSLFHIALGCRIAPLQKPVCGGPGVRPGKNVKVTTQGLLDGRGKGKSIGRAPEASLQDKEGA

Sequence of 5-hydroxytryptamine receptor 4 (O70528 whole entry): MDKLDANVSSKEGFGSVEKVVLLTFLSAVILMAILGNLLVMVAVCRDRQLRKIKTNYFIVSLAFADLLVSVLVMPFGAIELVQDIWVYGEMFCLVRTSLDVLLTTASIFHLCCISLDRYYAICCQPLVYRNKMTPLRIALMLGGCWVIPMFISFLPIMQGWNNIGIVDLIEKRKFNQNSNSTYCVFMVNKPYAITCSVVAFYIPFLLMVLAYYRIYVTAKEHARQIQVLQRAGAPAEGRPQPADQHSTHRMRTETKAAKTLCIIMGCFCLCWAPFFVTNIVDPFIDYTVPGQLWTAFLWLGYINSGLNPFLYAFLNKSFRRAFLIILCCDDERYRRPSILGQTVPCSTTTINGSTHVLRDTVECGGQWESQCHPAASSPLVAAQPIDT
Sequence of 5-hydroxytryptamine receptor 2B (P41595 whole entry): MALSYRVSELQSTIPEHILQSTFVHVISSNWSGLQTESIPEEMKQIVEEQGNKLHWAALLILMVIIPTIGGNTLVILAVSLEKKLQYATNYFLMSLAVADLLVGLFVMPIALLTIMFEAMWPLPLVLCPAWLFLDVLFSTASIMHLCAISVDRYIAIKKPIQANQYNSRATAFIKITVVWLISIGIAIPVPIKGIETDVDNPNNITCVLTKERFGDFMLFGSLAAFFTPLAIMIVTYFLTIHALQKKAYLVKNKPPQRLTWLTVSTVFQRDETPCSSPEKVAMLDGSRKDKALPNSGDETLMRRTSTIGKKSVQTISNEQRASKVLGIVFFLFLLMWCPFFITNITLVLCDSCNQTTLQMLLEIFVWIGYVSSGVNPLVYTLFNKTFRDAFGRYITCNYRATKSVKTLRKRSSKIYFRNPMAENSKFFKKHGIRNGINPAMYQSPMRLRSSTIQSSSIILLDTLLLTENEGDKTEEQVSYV

Compound | IC50 [1] | IC50 [2] | IC50 [3] | IC50 [4] | IC50 [5] | IC50 [6] | IC50 [7] | IC50 ([8]; cho-k1) | IC50 [9] | IC50 ([1]; read-out: IC50) | Ki ([1]; read-out: Ki) | IC50 ([8]; read-out: IC50) | Ki ([8]; read-out: Ki)
NCCCC[C@H](N[C@@H](CCc1ccccc1)C(=O)O)C(=O)N1CCC[C@H]1C(=O)O [LISINOPRIL ANHYDROUS] | Not Active | Not Active | Not Active | Not Active | Not Active | Not Active | Not Active | Not Active | Not Active |  |  |  | 
CC(=O)S[C@@H]1CC2=CC(=O)CC[C@]2(C)[C@H]2CC[C@@]3(C)[C@@H](CC[C@@]34CCC(=O)O4)[C@H]12 [SPIRONOLACTONE] | Not Active | Not Active | Not Active | Not Active | Not Active | Not Active | Not Active | Not Active | Not Active |  |  |  | 
CC(C)(C)NCC(O)c1ccc(O)c(CO)c1 (stereo unspecified) [ALBUTEROL] | Not Active | Not Active | Not Active | Not Active | Not Active | Not Active | Not Active | Not Active | Not Active |  |  |  | 
COc1cccc(C2(O)CCCCC2CN(C)C)c1 (stereo unspecified) [TRAMADOL] | Not Active | Not Active | Not Active | Not Active | Not Active | Not Active | Not Active | Not Active | Not Active |  |  |  | 
CO[C@@H]1[C@@H](O[C@@H]2O[C@H](C)[C@@H](O[C@H]3C[C@@](C)(O)[C@@H](OC(=O)CC(C)C)[C@H](C)O3)[C@H](N(C)C)[C@H]2O)[C@@H](CC=O)C[C@@H](C)[C@@H](O)/C=C/C=C/C[C@@H](C)OC(=O)C[C@H]1O [KITASAMYCIN] |  | Not Active | Not Active | Not Active | Not Active | Not Active | Not Active | Not Active | Not Active | 1.54 µM | 0.625 µM |  | 
Clc1ccc(C(c2ccccc2Cl)C(Cl)Cl)cc1 (stereo unspecified) [MITOTANE] | Not Active | Not Active | Not Active | Not Active | Not Active | Not Active | Not Active |  | Not Active |  |  | 4.83 µM | 3.08 µM
